Measurements as given in US9815835B2, “Substituted polycyclic carbamolypyridone derivative” (priority 2009, dated 2017).

What follows are compounds tested on influenza virus (assay: microbe, parasite or virus in culture). Details: unidentified influenza virus, 72 h, read-out: CPE EC50.
Type: cell-based, influenza virus (MDBK or MDCK cells)
With COCCCC1N(C(C)C)C(=O)c2c(O)c(=O)ccn2N1C1c2cccc(F)c2CCc2c(F)cccc21 (stereo not drawn) [Example 523] the EC50 was 14 nM.

Same assay, conditions: unidentified influenza virus, 72 h, read-out: CPE EC50, effective concentration to achieve 50% CPE inhibition, 3 days incubation, WST-8
O=C(O)c1cn2c(c(O)c1=O)C(=O)N(Cc1ccc(F)cc1F)C[C@@H]2C(c1ccccc1)c1ccccc1 [Example 16] gave an EC50 of 632 nM. Compound CCCN1C[C@H](C(c2ccccc2)c2ccccc2)n2cc(C(=O)O)c(=O)c(O)c2C1=O [Example 181] has an EC50 of 349 nM. CC(C)=CCN1C[C@H](C(c2ccccc2)c2ccccc2)n2cc(C(=O)O)c(=O)c(O)c2C1=O [Example 182] was tested, and the EC50 was 562 nM. CC(C)OCCN1C[C@H](C(c2ccccc2)c2ccccc2)n2cc(C(=O)O)c(=O)c(O)c2C1=O [Example 184] showed an EC50 of 403 nM. In the case of CCC(C)N1C[C@H](C(c2ccccc2)c2ccccc2)n2cc(C(=O)O)c(=O)c(O)c2C1=O (stereo partly drawn) [Example 186], the EC50 is reported as 159 nM. CCCC(C)N1C[C@H](C(c2ccccc2)c2ccccc2)n2cc(C(=O)O)c(=O)c(O)c2C1=O (stereo partly drawn) [Example 187] was tested, and the EC50 was 282 nM. CC(C)N1CN(Cc2ccc(Cl)c(Cl)c2)n2ccc(=O)c(O)c2C1=O [Example 199] gave an EC50 of 2720 nM. Compound CC(N1CN(C(c2ccccc2)c2ccccc2Cl)n2ccc(=O)c(O)c2C1=O)C(F)(F)F (stereo not drawn) [Example 242] has an EC50 of 59 nM. COCCN1CN(C2c3ccccc3CCc3ccccc32)n2ccc(=O)c(O)c2C1=O [Example 258] gave an EC50 of 28 nM. Work on CC(=O)OCC(C)N1CN(C2c3ccccc3CCc3ccccc32)n2ccc(=O)c(O)c2C1=O (stereo not drawn) [Example 261] yielded an EC50 of 47 nM. With O=C1c2c(O)c(=O)ccn2N(C2c3ccccc3CCc3ccccc32)CN1CCF [Example 262] the EC50 was 38 nM. Compound O=C1c2c(O)c(=O)ccn2N(C2c3ccccc3CCc3ccccc32)CN1CC(F)(F)F [Example 263] has an EC50 of 75 nM. CC(C)(C)N1CN(C2c3ccccc3CCc3ccccc32)n2ccc(=O)c(O)c2C1=O [Example 265] showed an EC50 of 36 nM. Work on COCCCN1CN(C2c3ccccc3CCc3ccccc32)n2ccc(=O)c(O)c2C1=O [Example 267] yielded an EC50 of 63 nM. With CS(=O)(=O)CCN1CN(C2c3ccccc3CCc3ccccc32)n2ccc(=O)c(O)c2C1=O [Example 269] the EC50 was 417 nM. Work on Cc1noc(CN2CN(C3c4ccccc4CCc4ccccc43)n3ccc(=O)c(O)c3C2=O)n1 [Example 270] yielded an EC50 of 129 nM. For CC(=O)OCCN1CN(C2c3ccccc3CCc3ccccc32)n2ccc(=O)c(O)c2C1=O [Example 276], the EC50 was 89 nM. Compound CC(C)N1CN(C2c3cc(F)ccc3CCc3ccc(F)cc32)n2ccc(=O)c(O)c2C1=O [Example 279] has an EC50 of 119 nM. CC(C)N1CN(C2c3ccccc3CCc3c(Cl)cccc32)n2ccc(=O)c(O)c2C1=O (stereo not drawn) [Example 282] gave an EC50 of 29 nM. CC(C)N1CN(C2c3ccc(F)cc3CCc3cc(F)ccc32)n2ccc(=O)c(O)c2C1=O [Example 284] was tested, and the EC50 was 19 nM. CC(=O)N1CC[C@@H](N2CN(C3c4ccccc4CSc4ccccc43)n3ccc(=O)c(O)c3C2=O)C1 (stereo partly drawn) [Example 289] gave an EC50 of 419 nM. CN1CCC(CN2CN(C3c4ccccc4CSc4ccccc43)n3ccc(=O)c(O)c3C2=O)CC1 (stereo not drawn) [Example 292] gave an EC50 of 2230 nM. In the case of O=C1c2c(O)c(=O)ccn2N(C2c3ccccc3CSc3ccccc32)CN1CCOC(F)(F)F (stereo not drawn) [Example 297], the EC50 is reported as 33 nM. For O=C1c2c(O)c(=O)ccn2N(C2c3ccccc3CSc3ccccc32)CN1CCCF (stereo not drawn) [Example 298], the EC50 was 12 nM. CC(C)N1CN(C2c3ccccc3CSc3ccccc32)n2ccc(=O)c(O)c2C1=O (stereo not drawn) [Example 301] gave an EC50 of 17 nM. With O=C1c2c(O)c(=O)ccn2N(C2c3ccccc3CSc3ccccc32)CN1CC(F)(F)F (stereo not drawn) [Example 306] the EC50 was 21 nM. For CCOCCN1CN(C2c3ccccc3CSc3ccccc32)n2ccc(=O)c(O)c2C1=O (stereo not drawn) [Example 312], the EC50 was 29 nM. In the case of COCC(COC)N1CN(C2c3ccccc3CSc3ccccc32)n2ccc(=O)c(O)c2C1=O (stereo not drawn) [Example 318], the EC50 is reported as 15 nM. For CC(=O)OCCN1CN(C2c3ccccc3CSc3ccccc32)n2ccc(=O)c(O)c2C1=O (stereo not drawn) [Example 325], the EC50 was 25 nM. CC(C)N1CN(C2c3ccccc3CSc3ccc(Cl)cc32)n2ccc(=O)c(O)c2C1=O (stereo not drawn) [Example 328] showed an EC50 of 168 nM. For COCC(COC)N1CN(C2c3cc(F)ccc3CSc3ccc(F)cc32)n2ccc(=O)c(O)c2C1=O (stereo not drawn) [Example 340], the EC50 was 27 nM. For CC(N1CN(C2c3ccccc3CSc3c(F)cccc32)n2ccc(=O)c(O)c2C1=O)C(F)(F)F (stereo not drawn) [Example 342], the EC50 was 26 nM. In the case of CC(C)N1CN(C2c3ccccc3CSc3c(F)cccc32)n2ccc(=O)c(O)c2C1=O (stereo not drawn) [Example 351], the EC50 is reported as 19 nM. Compound CN1CN(C2c3ccccc3CSc3c(F)cccc32)n2ccc(=O)c(O)c2C1=O (stereo not drawn) [Example 354] has an EC50 of 83 nM. For CC(CO)N1CN(C2c3ccccc3CCc3ccccc32)n2ccc(=O)c(O)c2C1=O (stereo not drawn) [Example 362], the EC50 was 67 nM. O=C1c2c(O)c(=O)ccn2N(C2c3ccccc3CCc3ccccc32)CN1CC(O)CO (stereo not drawn) [Example 364] showed an EC50 of 515 nM. For CC(C)C[C@H](CO)N1CN(C2c3ccccc3CSc3ccccc32)n2ccc(=O)c(O)c2C1=O (stereo partly drawn) [Example 374], the EC50 was 154 nM. CC(C)C[C@@H](CO)N1CN(C2c3ccccc3CSc3ccccc32)n2ccc(=O)c(O)c2C1=O (stereo partly drawn) [Example 377] showed an EC50 of 22 nM. In the case of CC(C)(C)[C@@H](CO)N1CN(C2c3ccccc3CSc3ccccc32)n2ccc(=O)c(O)c2C1=O (stereo partly drawn) [Example 380], the EC50 is reported as 18 nM. With CC(C)(C)[C@H](CO)N1CN(C2c3ccccc3CSc3ccccc32)n2ccc(=O)c(O)c2C1=O (stereo partly drawn) [Example 381] the EC50 was 34 nM. With O=C1c2c(O)c(=O)ccn2N(C2c3ccccc3CSc3c(Cl)cccc32)CN1CCO (stereo not drawn) [Example 382] the EC50 was 94 nM. CC(C)N1CN(C2c3ccccc3COc3ccccc32)n2ccc(=O)c(O)c2C1=O (stereo not drawn) [Example 391] gave an EC50 of 71 nM. In the case of COCCN1CN(C2c3ccccc3COc3cc(F)ccc32)n2ccc(=O)c(O)c2C1=O (stereo not drawn) [Example 397], the EC50 is reported as 77 nM. With COCCN1CN(C2c3ccccc3COc3ccc(F)cc32)n2ccc(=O)c(O)c2C1=O (stereo not drawn) [Example 401] the EC50 was 133 nM. For COCCN1CN(C2c3cc(F)ccc3COc3cc(F)ccc32)n2ccc(=O)c(O)c2C1=O (stereo not drawn) [Example 402], the EC50 was 81 nM. With CC(N1CN(C2c3ccccc3COc3c(F)cccc32)n2ccc(=O)c(O)c2C1=O)C(F)(F)F (stereo not drawn) [Example 406] the EC50 was 22 nM. For CC(C)N1CN(C2c3ccc(Cl)cc3COc3ccccc32)n2ccc(=O)c(O)c2C1=O (stereo not drawn) [Example 409], the EC50 was 29 nM. In the case of C[C@@H](N1CN(C2c3ccccc3COc3ccc(F)cc32)n2ccc(=O)c(O)c2C1=O)C(F)(F)F (stereo partly drawn) [Example 410], the EC50 is reported as 14 nM. Work on C[C@@H](N1CN([C@H]2c3ccccc3CSc3ccccc32)n2ccc(=O)c(O)c2C1=O)C(F)(F)F [Example 413] yielded an EC50 of 5 nM. With C[C@H](N1CN([C@@H]2c3ccccc3CSc3ccccc32)n2ccc(=O)c(O)c2C1=O)C(F)(F)F [Example 415] the EC50 was 22 nM. In the case of C[C@H](N1CN([C@H]2c3ccccc3CSc3ccccc32)n2ccc(=O)c(O)c2C1=O)C(F)(F)F [Example 416], the EC50 is reported as 19 nM. C[C@@H](N1CN([C@H]2c3ccccc3COc3c(F)cccc32)n2ccc(=O)c(O)c2C1=O)C(F)(F)F [Example 425] showed an EC50 of 47 nM. For C[C@@H](N1CN([C@H]2c3ccccc3SCc3cccc(Cl)c32)n2ccc(=O)c(O)c2C1=O)C(F)(F)F [Example 430], the EC50 was 29 nM. C[C@H](N1CN([C@@H]2c3ccccc3SCc3cccc(Cl)c32)n2ccc(=O)c(O)c2C1=O)C(F)(F)F [Example 431] gave an EC50 of 11 nM. For C[C@@H](N1CN([C@H]2c3ccc(C(F)(F)F)cc3CSc3ccccc32)n2ccc(=O)c(O)c2C1=O)C(F)(F)F [Example 432], the EC50 was 62 nM. Compound C[C@@H](N1CN([C@@H]2c3cc(Cl)ccc3CSc3ccccc32)n2ccc(=O)c(O)c2C1=O)C(F)(F)F [Example 443] has an EC50 of 4 nM. C[C@@H](N1CN([C@H]2c3ccccc3CSc3c(Cl)cccc32)n2ccc(=O)c(O)c2C1=O)C(F)(F)F [Example 450] was tested, and the EC50 was 14 nM. Compound C[C@H](N1CN([C@H]2c3ccccc3CSc3c(F)cccc32)n2ccc(=O)c(O)c2C1=O)C(F)(F)F [Example 453] has an EC50 of 49 nM. Work on C[C@@H](N1CN([C@H]2c3ccccc3CSc3ccc(Cl)cc32)n2ccc(=O)c(O)c2C1=O)C(F)(F)F [Example 455] yielded an EC50 of 71 nM. Compound C[C@@H](N1CN([C@H]2c3ccccc3CSc3cc(F)ccc32)n2ccc(=O)c(O)c2C1=O)C(F)(F)F [Example 458] has an EC50 of 14 nM. For C[C@H](N1CN([C@H]2c3ccccc3CSc3ccc(F)cc32)n2ccc(=O)c(O)c2C1=O)C(F)(F)F [Example 461], the EC50 was 74 nM. In the case of C[C@@H](N1CN([C@H]2c3cc(F)ccc3CSc3ccc(F)cc32)n2ccc(=O)c(O)c2C1=O)C(F)(F)F [Example 462], the EC50 is reported as 11 nM. C[C@H](N1CN([C@H]2c3ccccc3CSc3ccc(Cl)cc32)n2ccc(=O)c(O)c2C1=O)C(F)(F)F [Example 475] showed an EC50 of 441 nM. With CC(CN(C)C)N1CN(C2c3ccccc3CCc3ccccc32)n2ccc(=O)c(O)c2C1=O (stereo not drawn) [Example 479] the EC50 was 64 nM. CC(CN(C)C)N1CN(C2c3ccccc3CSc3ccccc32)n2ccc(=O)c(O)c2C1=O (stereo not drawn) [Example 480] was tested, and the EC50 was 84 nM. CC(CN(C)C)N1CN(C2c3ccccc3CSc3c(Cl)cccc32)n2ccc(=O)c(O)c2C1=O (stereo not drawn) [Example 481] showed an EC50 of 86 nM. CC(CN1CCOCC1)N1CN(C2c3ccccc3CSc3ccccc32)n2ccc(=O)c(O)c2C1=O (stereo not drawn) [Example 483] showed an EC50 of 27 nM. Compound CC(C)N1CN(C2c3ccccc3CCc3ccccc32)n2cc(C(=O)O)c(=O)c(O)c2C1=O [Example 491] has an EC50 of 99 nM. With CC(C)N1CN(C2c3ccccc3CSc3ccccc32)n2cc(C(=O)O)c(=O)c(O)c2C1=O (stereo not drawn) [Example 492] the EC50 was 160 nM. With CCN1C(=O)c2c(O)c(=O)ccn2C(C2c3ccccc3CSc3ccccc32)N1CC (stereo not drawn) [Example 502] the EC50 was 142 nM. Compound O=C(O)c1cn2c(c(O)c1=O)C(=O)N1CCCCN1C2C(c1ccccc1)c1ccccc1 (stereo not drawn) [Example 507] has an EC50 of 197 nM. For CSCC1N(C(C)C)C(=O)c2c(O)c(=O)ccn2N1C1c2ccccc2CCc2ccccc21 (stereo not drawn) [Example 514], the EC50 was 18 nM. CCCC1N(C(C)C)C(=O)c2c(O)c(=O)ccn2N1C1c2ccccc2CCc2ccccc21 (stereo not drawn) [Example 518] was tested, and the EC50 was 24 nM. In the case of COCCCC1N(C(C)C)C(=O)c2c(O)c(=O)ccn2N1C1c2ccccc2CCc2ccccc21 (stereo not drawn) [Example 522], the EC50 is reported as 14 nM.
